Literature values as cited in US20210330644A1, “COMBINATION THERAPY FOR TREATING METASTATIC PROSTATE CANCER” (Progenics Pharmaceuticals, Inc, priority 2018, published 2021).

Tested on: mCRPC

SMILES: CNC(=O)c1ccc(N2C(=S)N(c3ccc(C#N)c(C(F)(F)F)c3)C(=O)C2(C)C)cc1F [enzalutamide]
- proportion of patients with >50% decline in PSA from baseline (after progression under abiraterone therapy of any duration): 30-51%
- benefit in abiraterone-resistant patients (majority of data): limited benefit
